Test results taken from patent US11332435B2, “Method for producing (3S)-3-(4-chloro-3-{[(2S,3R)-2-(4- chlorophenyl)-4,4,4-trifluoro-3-methylbutanoyl]amino}phenyl)-3-cyclo-propylpropanoic acid and the crystalline form thereof for use as a pharmaceutical ingredient” (Bayer Pharma Aktiengesellschaft, priority 2017, dated 2022).

Columns and labels:
[1] = thermodynamic stability of the solid form; format: physicochemical; conditions: crystalline modification 1 compared with amorphous form of WO 2012/139888
[2] = stability in the micronization process; format: physicochemical
[3] = bioavailability of the solid form; format: in vivo; conditions: crystalline form of modification 1

With `C[C@H]([C@H](C(=O)Nc1cc([C@@H](CC(=O)O)C2CC2)ccc1Cl)c1ccc(Cl)cc1)C(F)(F)F` [Example I-1, (3S)-3-(4-chloro-3-{[(2S,3R)-2-(4-chlorophenyl)-4,4,4-trifluoro-3-methylbutanoyl]amino}phenyl)-3-cyclopropylpropanoic acid] the thermodynamic stability [1] was “higher thermodynamic stability”, the “stability in the micronization process (conversion, recrystallization)” value [2] was “stable in the micronization process” and the bioavailability [3] was “reproducible bioavailability”.
